Laboratory results from the supplement of paper PMC10307832.

Columns and labels:
Assay in all cases: relative viability (nuclei count vs DMSO), 5 days (fraction); higher = more cells survive
[1] = tested on: ABC-1
Summary of the method: (§1)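 Lung cancer cell lines were seeded in 1536-well plates and dosed by pin tool the next day, with either a single drug or a fixed anchor-drug dose combined with five library-drug doses (not always all listed) spaced in √10 steps. Five days later, one step fixed the cells and stained their nuclei (final 0.05% Triton X-100, 1% formaldehyde, 1 ug/ml Hoechst), and nuclei were counted on 4× images. Relative viability is the nuclei count in treated wells divided by the count in vehicle wells, and each value is the median of duplicate plates.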

[2] = tested on: COR-L23
Summary of the method: as §1

[3] = tested on: EPLC-272H
Summary of the method: as §1

[4] = tested on: HARA
Summary of the method: as §1

[5] = tested on: HCC-15
Summary of the method: as §1

[6] = tested on: HCC-78
Summary of the method: as §1

[7] = tested on: LC-2-ad
Summary of the method: as §1

[8] = tested on: LU99A
Summary of the method: as §1

[9] = tested on: NCI-H1651
Summary of the method: as §1

[10] = tested on: NCI-H1915
Summary of the method: as §1

[11] = tested on: NCI-H1993
Summary of the method: as §1

[12] = tested on: NCI-H2009
Summary of the method: as §1

[13] = tested on: NCI-H2085
Summary of the method: as §1

[14] = tested on: NCI-H2126
Summary of the method: as §1

[15] = tested on: NCI-H2342
Summary of the method: as §1

[16] = tested on: NCI-H2347
Summary of the method: as §1

[17] = tested on: NCI-H358
Summary of the method: as §1

[18] = tested on: NCI-H460
Summary of the method: as §1

[19] = tested on: NCI-H522
Summary of the method: as §1

[20] = tested on: NCI-H650
Summary of the method: as §1

[21] = tested on: NCI-H838
Summary of the method: as §1

[22] = tested on: PC-14
Summary of the method: as §1

[23] = tested on: SW 1573
Summary of the method: as §1

[24] = tested on: UMC-11
Summary of the method: as §1

**Q.** What does the source list for `C[C@@H]1CN(CC(=O)Nc2ccc3c(c2)Cc2cccc(-c4cc(=O)cc(N5CCOCC5)o4)c2S3)C[C@H](C)O1` + COc1cccc2cc(-c3nc([C@H]4CC[C@H](C(=O)O)CC4)n4ncnc(N)c34)[nH]c12 [OSI-027] (partner 0.5 µM)?
**A.** relative viability ([1]; first compound 0.1265 µM): 0.541; relative viability ([1]; first compound 0.4 µM): 0.466; relative viability ([1]; first compound 4 µM): 0.439; relative viability ([2]; first compound 0.04 µM): 0.782; relative viability ([2]; first compound 0.1265 µM): 0.776; relative viability ([2]; first compound 0.4 µM): 0.73; relative viability ([2]; first compound 4 µM): 0.717; relative viability ([3]; first compound 0.04 µM): 0.279; relative viability ([3]; first compound 0.1265 µM): 0.334; relative viability ([3]; first compound 0.4 µM): 0.301; relative viability ([3]; first compound 4 µM): 0.304; relative viability ([4]; first compound 0.1265 µM): 0.499; relative viability ([4]; first compound 0.4 µM): 0.251; relative viability ([4]; first compound 4 µM): 0.412; relative viability ([5]; first compound 0.04 µM): 0.76; relative viability ([5]; first compound 0.1265 µM): 0.606; relative viability ([5]; first compound 0.4 µM): 0.485; relative viability ([5]; first compound 4 µM): 0.524; relative viability ([6]; first compound 0.04 µM): 0.372; relative viability ([6]; first compound 0.1265 µM): 0.358; relative viability ([6]; first compound 0.4 µM): 0.365; relative viability ([6]; first compound 4 µM): 0.384; relative viability ([7]; first compound 0.04 µM): 0.984; relative viability ([7]; first compound 0.1265 µM): 0.923; relative viability ([7]; first compound 0.4 µM): 0.649; relative viability ([7]; first compound 4 µM): 0.656; relative viability ([8]; first compound 0.04 µM): 0.282; relative viability ([8]; first compound 0.1265 µM): 0.34; relative viability ([8]; first compound 0.4 µM): 0.299; relative viability ([8]; first compound 4 µM): 0.374; relative viability ([9]; first compound 0.04 µM): 0.694; relative viability ([9]; first compound 0.1265 µM): 0.836; relative viability ([9]; first compound 0.4 µM): 0.741; relative viability ([9]; first compound 4 µM): 0.585; relative viability ([10]; first compound 0.04 µM): 0.623; relative viability ([10]; first compound 0.1265 µM): 0.682; relative viability ([10]; first compound 0.4 µM): 0.632; relative viability ([10]; first compound 4 µM): 0.497; relative viability ([11]; first compound 0.04 µM): 0.578; relative viability ([11]; first compound 0.1265 µM): 0.603; relative viability ([11]; first compound 0.4 µM): 0.597; relative viability ([11]; first compound 4 µM): 0.551; relative viability ([12]; first compound 0.04 µM): 0.712; relative viability ([12]; first compound 0.1265 µM): 0.648; relative viability ([12]; first compound 0.4 µM): 0.613; relative viability ([12]; first compound 4 µM): 0.448; relative viability ([13]; first compound 0.04 µM): 0.97; relative viability ([13]; first compound 0.1265 µM): 0.611; relative viability ([13]; first compound 0.4 µM): 0.476; relative viability ([13]; first compound 4 µM): 0.477; relative viability ([14]; first compound 0.04 µM): 0.708; relative viability ([14]; first compound 0.1265 µM): 0.579; relative viability ([14]; first compound 0.4 µM): 0.677; relative viability ([14]; first compound 4 µM): 0.647; relative viability ([15]; first compound 0.04 µM): 0.647; relative viability ([15]; first compound 0.1265 µM): 0.506; relative viability ([15]; first compound 0.4 µM): 0.52; relative viability ([15]; first compound 4 µM): 0.58; relative viability ([16]; first compound 0.04 µM): 0.465; relative viability ([16]; first compound 0.1265 µM): 0.417; relative viability ([16]; first compound 0.4 µM): 0.415; relative viability ([16]; first compound 4 µM): 0.4; relative viability ([17]; first compound 0.04 µM): 0.679; relative viability ([17]; first compound 0.1265 µM): 0.673; relative viability ([17]; first compound 0.4 µM): 0.852; relative viability ([17]; first compound 4 µM): 0.418; relative viability ([18]; first compound 0.04 µM): 0.662; relative viability ([18]; first compound 0.1265 µM): 0.674; relative viability ([18]; first compound 0.4 µM): 0.587; relative viability ([18]; first compound 4 µM): 0.253; relative viability ([19]; first compound 0.04 µM): 0.706; relative viability ([19]; first compound 0.1265 µM): 0.679; relative viability ([19]; first compound 0.4 µM): 0.742; relative viability ([19]; first compound 4 µM): 0.735; relative viability ([20]; first compound 0.04 µM): 0.491; relative viability ([20]; first compound 0.1265 µM): 0.443; relative viability ([20]; first compound 0.4 µM): 0.51; relative viability ([20]; first compound 4 µM): 0.36; relative viability ([21]; first compound 0.04 µM): 0.401; relative viability ([21]; first compound 0.1265 µM): 0.377; relative viability ([21]; first compound 0.4 µM): 0.312; relative viability ([21]; first compound 4 µM): 0.288; relative viability ([22]; first compound 0.04 µM): 1.02; relative viability ([22]; first compound 0.1265 µM): 0.761; relative viability ([22]; first compound 0.4 µM): 0.744; relative viability ([22]; first compound 4 µM): 0.653; relative viability ([23]; first compound 0.04 µM): 0.796; relative viability ([23]; first compound 0.1265 µM): 0.72; relative viability ([23]; first compound 0.4 µM): 0.465; relative viability ([23]; first compound 4 µM): 0.604; relative viability ([24]; first compound 0.04 µM): 0.51; relative viability ([24]; first compound 0.1265 µM): 0.464; relative viability ([24]; first compound 0.4 µM): 0.472; relative viability ([24]; first compound 4 µM): 0.352
